Here are results for four compounds from patent US20110034496A1, “POST-HARVEST TREATMENT” (Bayer CropScience AG, priority 2007, published 2011).

One assay relates to Penicillium expansum. The assay is described as follows: Apples dipped in fungicidal solution, then inoculated with Penicillium expansum spores at cuticle injuries. In kind it is in vivo. The settings on record: for % Efficacy [Abbott] at 6 d: 6 d after inoculation; for % Efficacy [Abbott] at 10 d: 10 d after inoculation; for % Efficacy [Abbott] at 15 d: 15 d after inoculation. How it is done:
(§1) In Example 1 and Example 2 all compounds except fluopyram were applied as commercially available. 1 weight proportion of fluopyram, however, was mixed with solvents (24.5 w/w acetone, 24.5 w/w dimethylacetamid) and emulsifier (1 w/w), respectively. Afterwards, the product was diluted in water. The concentration used is indicated below. Apples were dipped in a fungicidal solution and kept in plastic boxes for drying. Afterwards 10 μl of a spore solution of Penicillium expansum has been applied to injuries of the cuticle of the fruits. The trial has been assessed at different time intervals after inoculation. The efficacy of the products has been calculated based on the fungal growth of the treated apples with reference to the inoculated untreated control. The efficacy is shown as % Abbott.

The subject of the next assay is Botrytis cinerea. The assay is described as follows: Apples dipped in fungicidal solution, then inoculated with Botrytis cinerea spores at cuticle injuries. It is filed as in vivo. The conditions noted are these: dip 100 g a.i./1000 ltr. How it is done: as §1, with “Botrytis cinerea” for “Penicillium expansum”, “6d and 10d” for “different time intervals”
[1] abbreviates: dip 750 g a.i./1000 ltr., Table 1b.
Where [2] appears, read: dip 50 g a.i./1000 ltr., Table 1b.
Where [3] appears, read: dip 100 g a.i./1000 ltr., Table 1b.
Setting [4] is: dip 100 g a.i./1000 ltr., Table 1a.

Turning to `Cc1ccc(N(SC(F)(Cl)Cl)S(=O)(=O)N(C)C)cc1` [Tolylfluanid, tolylfluanid], in the assay with Penicillium expansum (setting [1]), the “% Efficacy [Abbott] at 6 d” value turned out to be 64%, the “% Efficacy [Abbott] at 10 d” value stood at 60% and the “% Efficacy [Abbott] at 15 d” value worked out at 60%.

Take `CON=C(C(=O)OC)c1ccccc1CON=C(C)c1cccc(C(F)(F)F)c1` [Trifloxystrobin, trifloxystrobin]: in the assay with Penicillium expansum (setting [2]), the “% Efficacy [Abbott] at 6 d” value is on record as 50%, the “% Efficacy [Abbott] at 10 d” value is 63% and the “% Efficacy [Abbott] at 15 d” value was found to be 52%.

As for `O=C(NCCc1ncc(C(F)(F)F)cc1Cl)c1ccccc1C(F)(F)F` [Fluopyram, N-{2-[3-chloro-5-(trifluoromethyl)pyridin-2-yl]ethyl}-2-(trifluoromethyl)-benzamide], the “% Efficacy [Abbott] at 6 d” value with Penicillium expansum (setting [3]) amounted to 93%; with Botrytis cinerea (6 d after inoculation), 98%. The “% Efficacy [Abbott] at 10 d” value is 90% in the assay with Penicillium expansum (setting [3]) and 96% in the assay with Botrytis cinerea (10 d after inoculation). The “% Efficacy [Abbott] at 15 d” value in the assay with Penicillium expansum (setting [3]) is listed as 70%.

Regarding `CC(C)(C)C(O)(CCc1ccc(Cl)cc1)Cn1cncn1` (centres unmarked) [Tebuconazole, tebuconazole], in the assay with Penicillium expansum (setting [4]), the “% Efficacy [Abbott] at 6 d” value is listed as 100% and the “% Efficacy [Abbott] at 10 d” value is 100%. Also, in the assay on Penicillium expansum (dip 100 g a.i./1000 ltr., 14 d after inoculation, Table 1a), the “% Efficacy [Abbott] at 14 d” value was found to be 100%.
